The NIST ThermoML archive (doi:10.1016/j.tca.2008.12.007)
± gives the expanded uncertainty stated by the source.

Test: xn = mol fraction of the nth substance listed
Conditions: 101 kPa, Liquid, Vibrating tube method

C1CCCNCC1 [azacycloheptane] + O
mass density [kg/m3]
Conditions | 313.15 K | 318.15 K | 323.15 K | 333.15 K | 343.15 K | 348.15 K | 353.15 K
x2 = 0.0199 | – | 860.37 ± 0.29 | 855.9 ± 0.3 | 846.92 ± 0.3 | 837.91 ± 0.3 | 833.38 ± 0.3 | 828.84 ± 0.3
x2 = 0.0395 | – | 861.39 ± 0.29 | 856.9 ± 0.29 | 847.9 ± 0.29 | 838.84 ± 0.29 | 834.3 ± 0.29 | 829.73 ± 0.29
x2 = 0.0821 | – | 863.99 ± 0.27 | 859.48 ± 0.28 | 850.41 ± 0.28 | 841.28 ± 0.28 | 836.69 ± 0.28 | 832.07 ± 0.28
x2 = 0.1198 | – | 866.23 ± 0.26 | 861.7 ± 0.26 | 852.59 ± 0.26 | 843.4 ± 0.27 | 838.79 ± 0.27 | 834.14 ± 0.27
x2 = 0.1594 | – | 868.63 ± 0.25 | 864.08 ± 0.25 | 854.93 ± 0.25 | 845.7 ± 0.25 | 841.06 ± 0.26 | 836.38 ± 0.26
x2 = 0.1994 | – | 871.37 ± 0.24 | 866.81 ± 0.24 | 857.62 ± 0.24 | 848.34 ± 0.24 | 843.67 ± 0.24 | 838.95 ± 0.25
x2 = 0.2498 | – | 874.79 ± 0.22 | 870.21 ± 0.23 | 860.98 ± 0.23 | 851.65 ± 0.23 | 846.94 ± 0.23 | 842.2 ± 0.23
x2 = 0.3 | 882.83 ± 0.21 | 878.26 ± 0.21 | 873.67 ± 0.21 | 864.4 ± 0.21 | 855.03 ± 0.22 | 850.31 ± 0.22 | 845.54 ± 0.22
x2 = 0.3499 | 886.76 ± 0.2 | 882.18 ± 0.2 | 877.58 ± 0.2 | 868.28 ± 0.2 | 858.87 ± 0.21 | 854.12 ± 0.21 | 849.32 ± 0.21
x2 = 0.4 | 890.72 ± 0.19 | 886.14 ± 0.19 | 881.52 ± 0.19 | 872.21 ± 0.19 | 862.76 ± 0.19 | 857.99 ± 0.2 | 853.18 ± 0.2
x2 = 0.4529 | 895.39 ± 0.17 | 890.8 ± 0.18 | 886.19 ± 0.18 | 876.87 ± 0.18 | 867.39 ± 0.18 | 862.6 ± 0.18 | 857.76 ± 0.19
x2 = 0.5008 | 899.86 ± 0.15 | 895.29 ± 0.16 | 890.68 ± 0.16 | 881.36 ± 0.16 | 871.87 ± 0.16 | 867.08 ± 0.17 | 862.24 ± 0.17
x2 = 0.5041 | 899.86 ± 0.15 | 895.28 ± 0.15 | 890.68 ± 0.16 | 881.35 ± 0.16 | 871.87 ± 0.16 | 867.07 ± 0.17 | 862.22 ± 0.17
x2 = 0.5508 | 904.48 ± 0.15 | 899.93 ± 0.16 | 895.33 ± 0.16 | 886.03 ± 0.16 | 876.55 ± 0.16 | 871.76 ± 0.17 | 866.92 ± 0.17
x2 = 0.5992 | 909.37 ± 0.15 | 904.85 ± 0.15 | 900.28 ± 0.15 | 891.02 ± 0.15 | 881.58 ± 0.16 | 876.78 ± 0.16 | 871.95 ± 0.16
x2 = 0.65 | 915.05 ± 0.14 | 910.58 ± 0.14 | 906.06 ± 0.14 | 896.87 ± 0.15 | 887.5 ± 0.15 | 882.74 ± 0.15 | 877.92 ± 0.16
x2 = 0.699 | 920.96 ± 0.13 | 916.55 ± 0.14 | 912.1 ± 0.14 | 903.03 ± 0.14 | 893.76 ± 0.15 | 889.04 ± 0.15 | 884.27 ± 0.15
x2 = 0.7496 | 927.77 ± 0.13 | 923.47 ± 0.14 | 919.11 ± 0.14 | 910.24 ± 0.14 | 901.13 ± 0.15 | 896.49 ± 0.15 | 891.79 ± 0.15
x2 = 0.7994 | 935.59 ± 0.14 | 931.44 ± 0.14 | 927.23 ± 0.14 | 918.61 ± 0.15 | 909.74 ± 0.15 | 905.21 ± 0.15 | 900.62 ± 0.16
x2 = 0.8398 | 942.92 ± 0.15 | 938.93 ± 0.15 | 934.88 ± 0.15 | 926.57 ± 0.16 | 917.97 ± 0.17 | 913.57 ± 0.17 | 909.09 ± 0.17
x2 = 0.8799 | 951.63 ± 0.17 | 947.87 ± 0.17 | 944.03 ± 0.17 | 936.13 ± 0.18 | 927.91 ± 0.21 | 923.42 ± 0.2 | 918.78 ± 0.21
x2 = 0.92 | 962.53 ± 0.2 | 959.11 ± 0.2 | 955.59 ± 0.21 | 948.28 ± 0.22 | 942.9 ± 0.24 | 938.07 ± 0.25 | 933.73 ± 0.27
x2 = 0.9599 | 976.48 ± 0.22 | 973.55 ± 0.23 | 970.5 ± 0.24 | 964.06 ± 0.25 | 958.32 ± 0.25 | 954.48 ± 0.27 | –
x2 = 0.96 | 976.54 ± 0.26 | 973.61 ± 0.27 | 970.56 ± 0.28 | 964.12 ± 0.28 | 958.4 ± 0.33 | 954.96 ± 0.27 | –
x2 = 0.9699 | 980.66 ± 0.26 | 977.9 ± 0.27 | 975.01 ± 0.28 | 968.88 ± 0.3 | 963.25 ± 0.29 | – | –
x2 = 0.98 | 985.06 ± 0.26 | 982.5 ± 0.28 | 979.8 ± 0.29 | 974.02 ± 0.3 | 967.74 ± 0.27 | 964.39 ± 0.29 | 961.1 ± 0.28
